# Where two headings read alike, the source gives them in different places.
# Key:
# Towne GFP strain of HCMV = type: cell-based, Human Cytomegalovirus (HCMV); conditions: for inhibition of viral infection: HFF cells, MOI 0.5, 48 hours post infection
# Procedure: The Towne strain of HCMV containing the Green Fluorescent Protein (GFP) expression cassette was obtained from Dr. Dan Streblow at the Oregon Health Science University and was propagated in human foreskin fibroblast (HFF) cells. Viral supernatants were collected, centrifuged to clear cell debris, and filtered through a 0.45 μm filter. HFF cells were grown in Dulbecco's modified Eagle medium (DMEM) supplemented with 10% fetal bovine serum (FBS), penicillin G (100 U/mL), streptomycin ([…]), and GLUTAMAX™ L-glutamine supplement (2 mM) from Invitrogen.
# Human foreskin fibroblasts were seeded at the density of about 3.5×10^5 cells in each well of a 24-well plate about 24 hours prior to infection. The HFF cells were washed with 1×DPBS, and mock or virus infected for about 90 minutes at room temperature (RT) with the Towne GFP strain of HCMV at about 0.5 multiplicity of infection (MOI), preincubated with a range of concentrations of inhibitory peptides at about 37° C. for about 90 minutes. After the infection, virus mixture was removed and 10% FBS complete DMEM was added to each well and cells were incubated at about 37° C. for about 48 hours. GFP positive cells were visualized about 48 hours post infection by fluorescence microscopy and then quantified using flow cytometry. […] HFF cells were trypsinized, centrifuged, and resuspended in 1% FBS-Dulbecco's phosphate buffered saline (DPBS). GFP positive cells were quantified using flow cytometry (CYTOMICS FC 500 from Beckman Coulter, Fullerton, Calif.).
# All of the synthetic peptides were tested at the following concentrations: about 100 μM, 50 μM, 25 μM, 10 μM, 5 μM, 2.5 μM, 1.25 μM, 0.625 μM, 0.3125 μM, 0.156 μM, and 0.078 μM.
# HCMV TRpMIA = test: Inhibition of HCMV TRpMIA infection of HFF cells (IE-1/IE-2 positive cells); type: cell-based, Human Cytomegalovirus (HCMV); conditions: for significance of inhibition of infection: vs non-treated infected control
# Procedure: In order to assess the ability of the peptides of the present invention to inhibit a clinically significant HCMV (HCMV TRpMIA), Peptide 174-200 (SEQ ID NO:3), Peptide 233-263 (SEQ ID NO: 4), and Peptide 264-291 (SEQ ID NO: 5), were tested for inhibition of HCMV TRpMIA infection of HFF cells under the assay conditions similar to these described in Example 2 for the Towne strain of HCMV, above. In particular, HFF cells were plated in 96-well plates at a density of about 10,000 cells-per-well about 24 hours […]. Individual inhibitory peptides were evaluated against 0.5 MOI HCMV TRpMIA preincubated with various concentrations in the range of about 0.078 micromolar to about 100 micromolar. The results obtained from these assays are shown in FIG. 13, FIG. 14, and FIG. 15 for Peptide 174-200, Peptide 233-263, and Peptide 264-291, respectively. The degree of HCMV infection was determined by evaluating the number of cells expressing immediate-early 1 (IE-1) or IE-2 HCMV proteins 24 hours post-infection. Treatments resulting in significant reductions in the number of cells that were positive for IE 1, IE-2, or both, compared to non-treated control HCMV infected cells, are denoted by a * (p<0.05), ** (p<0.01), and *** (p<0.001, one-way ANOVA and Tukey's post test). Variants and derivatives of Peptide 233-263 (SEQ ID NO: 4) also were prepared and tested in the same assay. The sequences of the tested variants and derivatives are shown in Table 4, with additions or modifications from SEQ ID NO: 4 shown in boldface type.
# HSV-1 McIntyre strain = test: Inhibition of HSV-1 infection of Vero cells (Crystal Violet staining); type: cell-based, Herpes Simplex Virus 1 (HSV-1); conditions: MOI 0.001, peptide 2.5 to 100 μM; for inhibition of HSV-1 infection: 48 hours
# Procedure: FIG. 6 illustrates inhibition of HSV-1 infection by HCMV gB peptides. To evaluate the ability of newly designed HCMV gB-specific peptide to inhibit HSV-1 infection, Vero cells were infected for about 90 minutes at room temperature with HSV-1 (McIntyre strain; MOI=0.001) that was preincubated with a range of concentrations of four different synthetic peptides at about 37° C. for about 90 minutes. Each treatment was done in triplicate, where A=media, B=HSV-1 MOI of 0.001, C=100 μM peptide and virus, D=50 μM peptide and virus, E=25 μM peptide and virus, F=10 μM peptide and virus, G=5 μM peptide and virus, H=2.5 μM peptide and virus. HCMV gB peptides (Peptide 174-200 (SEQ ID NO: 3), Peptide 233-263 (SEQ ID NO: 4), and Peptide 264-291 (SEQ ID NO: 5)) that are within domain II were inhibitory against HSV-1 infection. Peptide 476-494 (SEQ ID NO: 7) corresponds to trimerization domain of HCMV gB that contains extended α-helices important in the formation of HCMV gB homotrimer during fusion of HCMV virion and lipid membrane of the host cell. Overlapping inhibitory HSV-1 peptides span regions 496-510 and 501-515 of HSV-1 gB (SEQ ID NO: 8) and are analogous to HCMV gB Peptide 476-494 (SEQ ID NO: 7).
# To evaluate the ability of HCMV gB peptides to inhibit infection by HSV-1, Vero cells were plated at a density of about 1.5×10^5 cells in each well of a 24 well-plate 24 hours prior to infection. The cells were washed and mock- or virus-infected for about 90 minutes at room temperature with HSV-1 McIntyre strain (ATCC) of about 0.001 MOI preincubated with a range of concentrations of four different synthetic peptides at about 37° C. for about 90 minutes. After exposure to the virus, the virus mixture was removed and the cells were overlayed with 2% FBS MEM containing 1% methylcellulose. Cells were incubated for about 48 hours at about 37° C. After about 48 hours, the cells were fixed, stained with Crystal Violet, and air dried.
# In FIG. 6, each treatment was done in triplicate, where A=media, B=HSV-1 MOI of 0.001, C=100 μM peptide and virus, D=50 μM peptide and virus, E=25 μM peptide and virus, F=10 μM peptide and virus, G=5 μM peptide and virus, H=2.5 μM peptide and virus. […] Peptide 476-494 (SEQ ID NO: 7) corresponds to the trimerization domain of HCMV gB, which contains extended α-helices important in the formation of HCMV gB homotrimer during fusion of HCMV virion and lipid membrane of the host cell. Overlapping inhibitory HSV-1 peptides that span regions 496-510 and 501-515 of the HSV-1 gB protein (SEQ ID NO: 8) are analogous to HCMV gB peptide 476-494 (SEQ ID NO: 7). As predicted, HCMV Peptide 476-494 (SEQ ID NO: 7) worked best at the concentration of about 2.5 μM.
# [1] = pregnancy; cited from earlier work
# HIV-1 = conditions: cited from earlier work
# [2] = 50 micromolar, 24 hours post-infection
# [3] = 100 micromolar, 24 hours post-infection
# [4] = 25 micromolar, 24 hours post-infection
# [5] = 25 micromolar to 100 micromolar
substance,measurement,setting,value
"FFIFPNYTIVSDFGRPNAA (human cytomegalovirus glycoprotein B peptide) [Peptide 297-315, synthetic peptide of HCMV gB residues 297-315]",inhibition of viral infection,Towne GFP strain of HCMV; peptide 50 μM,about 40%
"HFFATSTGDVVYISPFYNGTNRNASYFG (human cytomegalovirus glycoprotein B peptide) [Peptide 264-291, synthetic peptide of HCMV gB residues 264-291]",inhibition of viral infection,Towne GFP strain of HCMV; peptide 5 μM,about 70.5%
same,significance of inhibition of infection,HCMV TRpMIA; [2],* (* (p<0.05))
same,significance of inhibition of infection,HCMV TRpMIA; [3],* (* (p<0.05))
same,inhibition of HSV-1 infection,HSV-1 McIntyre strain,inhibited HSV-1 infection
"HNLVYAQLQFTYDTLRGYI (human cytomegalovirus glycoprotein B peptide) [Peptide 476-494, synthetic peptide of the trimerization domain of HCMV gB, residues 476-494]",number of HCMV infected cells versus peptide concentration,Towne GFP strain of HCMV; decreasing peptide concentration,the number of HCMV infected cells decreased as the concentration of this peptide decreased
same,inhibitory activity against HCMV strain Towne-GFP,Towne GFP strain of HCMV; high concentrations tested,did not show any inhibitory activity
same,concentration at which the peptide worked best against HSV-1,HSV-1 McIntyre strain,about 2.5 μM
KDQWHSRGSTWLYRETANLNAMLTITTARSKYPY (Modified HCMV gB peptide) [Peptide 233-263.1],inhibition of HCMV TRpMIA infection compared to Peptide 233-263,HCMV TRpMIA,less effective
same,inhibition relative to the controls,HCMV TRpMIA,some level of inhibition
KDQWHSRGSTWLYRETANLNAMLTITTARSKYPYHFFATS [Peptide 233-263.4],inhibition of HCMV TRpMIA infection compared to Peptide 233-263,HCMV TRpMIA,less effective
same,inhibition relative to the controls,HCMV TRpMIA,some level of inhibition
VTVKDQWHSRGSTWLYRETANLNAMLTITTARSKYPY (Modified HCMV gB peptide) [Peptide 233-263.2],inhibition of HCMV TRpMIA infection compared to Peptide 233-263,HCMV TRpMIA,less effective
same,inhibition relative to the controls,HCMV TRpMIA,some level of inhibition
WEIHHINKFAQAYSSYSRVIGGTVFVA [Peptide 174-200],inhibition of viral infection,Towne GFP strain of HCMV; peptide 2.5 μM,~62%
same,inhibition of viral infection,Towne GFP strain of HCMV; peptide 5 μM,about 51%
same,inhibition of viral infection,Towne GFP strain of HCMV; peptide 100 μM,about 80%
same,significance of inhibition of infection,HCMV TRpMIA; [4],** (** (p<0.01))
same,significance of inhibition of infection,HCMV TRpMIA; [2],* (* (p<0.05))
same,significance of inhibition of infection,HCMV TRpMIA; [3],"*** (*** (p<0.001, one-way ANOVA and Tukey's post test))"
same,inhibition of HSV-1 infection,HSV-1 McIntyre strain,inhibited HSV-1 infection
WHSRGSTWLYRAETANLNAMLTITTARSKYPY (Modified HCMV gB peptide) [Peptide 233-263.5],inhibition of HCMV TRpMIA infection compared to Peptide 233-263,HCMV TRpMIA,less effective
same,inhibition relative to the controls,HCMV TRpMIA,some level of inhibition
WHSRGSTWLYRETANLNAMLTITTARSKYPY [Peptide 233-263],inhibition of infection seen in fluorescent and bright light images (FIG. 4),"Towne GFP strain of HCMV; 100 μM, MOI 0.5, 48 hours post-infection",effectively inhibited infection of the cells
same,inhibition of viral infection,Towne GFP strain of HCMV; peptide 2.5 μM,about 60%
same,inhibition of viral infection,Towne GFP strain of HCMV; peptide 50 μM,about 92%
same,inhibition of viral infection,Towne GFP strain of HCMV; peptide 100 μM,about 97%
same,significance of inhibition of infection,"HCMV TRpMIA; 5 micromolar, 24 hours post-infection",* (* (p<0.05))
same,significance of inhibition of infection,"HCMV TRpMIA; 10 micromolar, 24 hours post-infection","*** (*** (p<0.001, one-way ANOVA and Tukey's post test))"
same,significance of inhibition of infection,HCMV TRpMIA; [4],"*** (*** (p<0.001, one-way ANOVA and Tukey's post test))"
same,significance of inhibition of infection,HCMV TRpMIA; [2],"*** (*** (p<0.001, one-way ANOVA and Tukey's post test))"
same,extent of inhibition of infection,HCMV TRpMIA; 50 to 100 micromolar,almost complete inhibition
same,significance of inhibition of infection,HCMV TRpMIA; [3],"*** (*** (p<0.001, one-way ANOVA and Tukey's post test))"
same,inhibition of HSV-1 infection,HSV-1 McIntyre strain,inhibited HSV-1 infection
WHSRGSTWLYRETANLNAMLTITTARSKYPYGRKKRRQRRRP (human cytomegalovirus glycoprotein B peptide) [Peptide 233-263.8],inhibition of HCMV TRpMIA infection compared to Peptide 233-263,HCMV TRpMIA,less effective
same,inhibition relative to the controls,HCMV TRpMIA,some level of inhibition
WHSRGSTWLYRETANLNAMLTITTARSKYPYHFF (Modified HCMV gB peptide) [Peptide 233-263.3],inhibition of HCMV TRpMIA infection compared to Peptide 233-263,HCMV TRpMIA,less effective
same,inhibition relative to the controls,HCMV TRpMIA,some level of inhibition
WHSRGSTWLYRETANLNAMLTITTARSKYPYP (Modified HCMV gB peptide) [Peptide 233-263.6],inhibition of HCMV TRpMIA infection compared to Peptide 233-263,HCMV TRpMIA,less effective
same,inhibition relative to the controls,HCMV TRpMIA,some level of inhibition
WHSRGSTWLYRETANLNAMLTITTARSKYPYRRRRRRRRR (human cytomegalovirus glycoprotein B peptide) [Peptide 233-263.9],extent of inhibition of infection,HCMV TRpMIA; [5],almost complete inhibition
same,significance of inhibition of infection,HCMV TRpMIA; [5],"*** (*** (p<0.001, one-way ANOVA and Tukey's post test))"
same,inhibition of HCMV TRpMIA infection compared to Peptide 233-263,HCMV TRpMIA,significant improvement
enfuvirtide,crossing of the placenta,[1],does not cross the placenta
same,vertical transmission of HIV-1 in pregnancy,HIV-1,prevents vertical transmission of HIV-1 in pregnancy
